Like-named read-outs stand apart in the source and are kept apart here.
Assays:
spleen T cells = assay: T cell proliferation inhibition (CFSE, FACS), CD3/CD28-activated spleen T cells; type: cell-based, C57BL/6 mice; conditions: for inhibition at 10 µM / inhibition at 30 µM / inhibition at 50 µM: Mus musculus, T-cell, read-out: Proliferation inhibition rate (%)
Protocol: To investigate whether the compounds obtained in the Preparation Example have an inhibitory effect on T cell proliferation, the T cell proliferation was determined ex vivo using the fluorescent dye carboxyfluorescein diacetate succinimidyl ester (CFSE), which binds to intracellular molecules by covalent bonds.
Spleens were harvested and minced from C57BL/6 mice at 7 weeks of age, and then single cells were isolated using a strainer (40 μm pore size, SPL). Red blood cells were removed using ACK (Ammonium-Chloride-Potassium) lysis buffer to isolate only leukocytes. Subsequently, CD90.2 microbeads (130-121-278, Miltenyi Biotech.) were added, and subjected to react at 4° C. for 20 minutes. After that, spleen T cells were isolated using a MACS Magnetic Stand and LS column. The isolated T cells from the spleen were resuspended in 1 mL of Free media (RPMI-1640+200 U/mL penicillin+200 μg/mL streptomycin), followed by the addition of 0.3 μL of CFSE (10 mM), and reacted at 37° C. for 5 minutes. Subsequently, 10 mL of Free media was added to stop the reaction, and the cells were centrifuged to obtain the cell pellet. RPMI 1640 medium containing 10% FBS, 100 U/mL penicillin, and 100 μg/mL streptomycin was added to suspend the cells, and 2×10^5 cells per well were seeded into a 96-well plate and T cells were activated by treatment with CD3 and CD28 antibodies (each at 0.5 μg/mL).
The compound diluted in DMSO was treated in triplicate at concentrations of 10 μM, 30 μM, and 50 μM, respectively. After incubation at 37° C. with 5% CO2 for 3 days, cell proliferation levels were determined using a FACS Canto machine.
In the FACS graph of FIG. 1, the y-axis represents the quantity (number) of cells, while the x-axis represents the fluorescence level of the cells. […] This reduction in CFSE fluorescence results in a leftward shift along the x-axis in the graph. This indicates cell proliferation.
To collectively indicate the proliferation inhibition rate for the experimental results, the relative value of the proliferation amount after compound administration to the proliferation amount after CD3/CD28+DMSO administration was calculated. Subsequently, it was converted into an inhibition amount and expressed as a percentage, thereby determining the proliferation inhibition rate. Specifically, the proliferation inhibition rate was calculated as follows: […]

[1] = tested on: T lymphocyte cell line Jurkat E6-1; assay: Cytotoxicity experiment (CCK-8, relative cell survival); type: cell-based; conditions: 24 hours, untreated cells = 100%
Protocol: To evaluate the cytotoxicity of the compound according to the present invention, the following experiment was conducted.
The T lymphocyte cell line Jurkat E6-1, purchased from the Korean Cell Line Bank, was cultured in RPMI-1640 medium comprising 10% FBS, 100 U/mL penicillin, and 100 μg/mL streptomycin. After culturing, the cells were harvested and centrifuged at 1,300 rpm for 5 minutes. After removal of the supernatant, the cells were resuspended in the same medium at a concentration of approximately 2.2×10^5 cells/mL, and 90 μL of the cell suspension was distributed per well into a 96-well plate (Costar 96 well cell culture plate, Corning). After treating 10 μL of each compound at different concentrations onto the respective wells of the plate, it was cultured for 24 hours at 37° C. in a 5% CO2 incubator. Subsequently, 10 μL of CCK-8 was added to each well, and it was cultured again for 2 hours at 37° C. in a 5% CO2 incubator. Absorbance was then measured at 450 nm to determine the relative cell survival rate compared to untreated cells, as shown in Table 4.
The values listed in Table 4 represent the relative cell survival rates in the groups treated with each compound at different concentrations, with the cell survival rate of untreated cells set as 100%.

[2] = 72 h, Table 2, 10 μM, 3 days, relative to CD3/CD28+DMSO
[3] = 72 h, Table 2, 30 μM, 3 days, relative to CD3/CD28+DMSO
[4] = 72 h, Table 2, 50 μM, 3 days, relative to CD3/CD28+DMSO

Row | Structure (SMILES) | inhibition at 10 µM (spleen T cells; [2]) [%] | inhibition at 30 µM (spleen T cells; [3]) [%] | inhibition at 50 µM (spleen T cells; [4]) [%] | Relative cell survival rate (%) ([1]; 10 μM) | Relative cell survival rate (%) ([1]; 20 μM) | Relative cell survival rate (%) ([1]; 30 μM) | Relative cell survival rate (%) ([1]; 50 μM) | Proliferation inhibition rate (%) (spleen T cells; Table 2, 10 μM, 3 days, relative to CD3/CD28+DMSO) | Proliferation inhibition rate (%) (spleen T cells; Table 2, 30 μM, 3 days, relative to CD3/CD28+DMSO) | Proliferation inhibition rate (%) (spleen T cells; Table 2, 50 μM, 3 days, relative to CD3/CD28+DMSO) | cell proliferation read by FACS (FIG. 2) (spleen T cells; concentrations ranging from 10 to 30 μM) | inhibition at 10 µM (spleen T cells; Table 3 (compounds not belonging to Formula 1), 10 μM) [%] | inhibition at 30 µM (spleen T cells; Table 3 (compounds not belonging to Formula 1), 30 μM) [%] | inhibition at 50 µM (spleen T cells; Table 3 (compounds not belonging to Formula 1), 50 μM) [%]
1 | CCCCCCCCNCCCNC(=O)c1nccnc1Cl [Compound 82] | 60 | 80 | 85 | 95 | 90 | 97 | 88 |  |  |  |  |  |  | 
2 | CCCCCCCCCCCCNC(=O)c1ccccc1[N+](=O)[O-] [Compound 50] |  |  |  | 74 | 75 | 70 | 68 | 0 | 66 | 97 |  |  |  | 
3 | CCCCCCCCCCCCNC(=O)c1ncccc1N [Compound 67] | 35 | 88 | 100 | 94 | 93 | 93 | 92 |  |  |  |  |  |  | 
4 | CCCCCCCCCCCCNC(=O)c1ccccc1-n1cccc1 [Compound 84] | 89 | 96 | 100 | 96 | 94 | 96 | 94 |  |  |  | inhibition of cell proliferation |  |  | 
5 | CCCCCCCCCCCCNC(=O)c1ccccc1Oc1ccccc1 [Compound 61] | 16 | 86 | 98 | 96 | 94 | 76 | 74 |  |  |  |  |  |  | 
6 | CCCCCCCCCCCCNC(=O)c1ccccc1-c1ncc[nH]1 [Compound 52] | 42 | 95 | 100 | 88 | 85 | 84 | 84 |  |  |  |  |  |  | 
7 | CCCCCCCCCCCCNC(=O)c1c(Cl)cccc1Cl [Compound 39] | 7 | 61 | 89 | 89 | 102 | 78 | 79 |  |  |  |  |  |  | 
8 | CCCCCCCCCCCCNC(=O)c1cccnc1O [Compound 70] | 29 | 78 | 98 | 119 | 122 | 124 | 125 |  |  |  |  |  |  | 
9 | CCCCCCCCCCCCNC(=O)c1ccccc1Nc1cccc(C)c1C [Compound 51] | 100 | 100 | 100 | 99 | 94 | 92 | 90 |  |  |  |  |  |  | 
10 | CCCCCCCCCCCCNC(=O)c1cccnc1Nc1cccc(C(F)(F)F)c1 [Compound 33] | 33 | 100 | 100 | 100 | 91 | 79 | 70 |  |  |  |  |  |  | 
11 | CCCCNC(=O)c1ccccc1F [Compound 81] |  |  |  | 103 | 105 | 107 | 108 |  |  |  |  | 0 | 2 | 22

From US20250296909A1, “NOVEL BENZENE DERIVATIVE AND IMMUNOSUPPRESSION-RELATED USE THEREOF” (PROVIBIO CO., LTD., priority 2021, published 2025)
